{"source": "patent US8637484B2", "about": "“Modulation of growth hormone receptor expression and insulin-like growth factor expression” (Antisense Therapeutic Limited, priority 2003, dated 2014)", "key": {"growth hormone receptor": {"tested_on": "growth hormone receptor", "assay": "[125I] hGH specific binding assay on liver microsomal membranes of treated mice", "type": "in vivo, mouse", "experimental": "Specific binding assays were carried out with liver tissue using iodinated human growth hormone [^125I] hGH.\nMicrosomal membrane preparations were obtained as follows. 400 mg of tissue powder was homogenized in cold homogenizing buffer (50 mM Tris/HCl, 250 mM sucrose, pH 7.4). This was centrifuged at 2000 rpm for 10 min at 3° C. and the supernatant was saved. This was centrifuged again at 15,000 rpm for 20 min. Pellets were resuspended in 0.5 ml of RRA buffer with inhibitor (50 mM Tris, 20 mM MgC12, pH 7.4). Microsomal preparation samples were stored at −80° C. until the specific binding assay.\nThe [^125I] hGH specific binding assay was done as follows. Four glass tubes were set up for each sample, two for (−), two for (+). Different sample and solutions were added in each tube as follows (i) 0.2 ml RRA buffer (50 mM Tris, 20 mM MgCl2, 0.1% BSA, pH 7.4); (ii) 0.1 ml membrane (1/2 or 1/4 dilution); (iii) 0.1 ml bGH (10 μg/ml) for the (+) tube or 0.1 ml RRA buffer for the (−) tube; and (iv) 0.1 ml [^125I]-hGH tracer.\nSamples were incubated at 4° C. with shaking overnight. The reaction was stopped with 2.5 ml of cold RRA, and the sample centrifuged at 2800 rpm for 25 min at 4° C. Supernatant was aspirated and pellets counted using the γ-counter. The specific binding capacity was calculated as: CPM(−)-CPM(+) Protein content of the microsomal samples was determined by the BCA protein assay."}, "[1]": {"tested_on": "serum insulin-like growth factor-I", "assay": "Serum IGF-I by radioimmunoassay, 1 week pilot study in Balb/C(a) mice", "type": "in vivo, mouse", "details": "for % IGF-I reduction: 30 mg/kg once every 2 days, serum IGF-I at day 7 compared to saline control at day 7", "experimental": "Forty male Balb/C(a) mice weighing 9 to 10 g were placed into cages, 4 animals per cage, and allowed to assimilate into their environment with new littermates ˜1 week prior (Day −7) to the commencement of 1 week study. Mice of this age would be at their maximum growth rate. Their body weights were measured and recorded every second day during this period. When mice weighed 11 g (day −2), a blood sample was collected under anesthesia as described below, and a serum IGF-I assay was performed to determine pre-treatment values and to aid in the assigning of mice to treatment groups in order to reduce animal variability. To obtain the blood sample, the animals were anaesthetized with pentobarbital (50 mg/kg i.p.) and non-fasting blood samples collected exactly 5 minutes later from the retrobulbar plexus through heparinized capillary tubes under light ether anesthesia. The 40 animals were placed into five groups with each group having a similar weight average and similar IGF-I average concentration for the trial.\nAnimals (n=8/group) were designated to the following five treatment groups:\nSaline, antisense, mismatch control and octreotide samples were prepared, and coded for blinding. Animals were given a subcutaneous dose of saline every second day, and mismatch control or antisense with administration on days 0, 2, 4, 6. Animals were given twice daily doses of 25 μg octreotide. Animals were housed 4 per cage, for the duration of one week. They had access to a pre-determined quantity of standard mouse food and water at all times throughout the experiment. They were housed in a quiet, temperature- and humidity-maintained environment for the entirety of the study. At day 0 and before treatment on each day or second day, the animals had their body weight and food intake measured, enabling the correct dose of agent to be administered. The animals were monitored closely for any changes in fur, skin, eye, locomotion or other changes in behavior. No problems were observed. Every second day from day −7 to day 7 body weight and food intake were measured.\nOn day 7, one day after the last dose of antisense, and/or after the last octreotide dose, the animals were anaesthetized with pentobarbital (50 mg/kg i.p.) and non-fasting blood samples collected exactly 5 minutes later from the retrobulbar plexus through heparinized capillary tubes under light ether anesthesia (as on day −7 and 0).\nAt day −2 and day 7, serum IGF-I measurement was done by radioimmunoassay. Serum IGF-I level is the most widely used measure of growth hormone biological activity in human therapy. It is used to measure the efficacy of growth hormone antagonist treatments like Trovert, which block cells' responsiveness to excess growth hormone, and dopamine agonists and octreotide somatostatin […] drugs that block growth hormone secretion from the pituitary."}, "serum IGF-I [2]": {"tested_on": "serum IGF-I", "assay": "Serum IGF-I, two-week mouse study", "type": "in vivo", "details": "for % decrease relative to 3 mg/kg ISIS 261303: day 14", "experimental": "(§1) A two-week study was done in similar fashion to the one-week study in Example 18, this time using ISIS 227446 at doses of 3, 5, 10, 20 and 30 mg/kg. The mismatch control was given at the same doses. Mice were treated with antisense compound or saline every other day for 14 days.\nP-values were determined by t-test."}, "[3]": {"tested_on": "growth hormone receptor mRNA", "assay": "Growth hormone receptor mRNA levels in liver, two-week mouse study", "type": "in vivo", "details": "30 mg/kg", "experimental": "as §1\nGrowth hormone receptor mRNA levels in liver tissue samples from treated and untreated mice in this two-week study were assayed. The growth hormone receptor antisense inhibitor ISIS 227446 reduced growth hormone receptor mRNA levels in liver after the two-week study by 50% at the 20 mg/kg dose relative to saline control (p<0.001). The 30 mg/kg dose of ISIS 227446 yielded a 53% decrease in growth hormone receptor mRNA (p<0.0001). The mismatch control oligonucleotide ISIS 261303 (SEQ ID NO: 267), at 30 mg/kg, reduced growth hormone receptor mRNA levels by approximately 3%."}, "[4]": {"tested_on": "serum insulin-like growth factor-I", "assay": "Serum IGF-I by radioimmunoassay, 1 week pilot study in Balb/C(a) mice", "type": "in vivo, mouse"}, "serum IGF-I [5]": {"tested_on": "serum IGF-I", "details": "high doses, 12 week study, cited from earlier work"}, "[6]": {"tested_on": "serum insulin-like growth factor-I", "details": "patients with acromegaly; cited from earlier work"}, "sIGF-1": {"tested_on": "sIGF-1", "details": "cited from earlier work"}, "[7]": {"details": "30 mg/kg every second day for one week, liver membranes"}}, "data": [{"substance": "ISIS 261303: negative control oligonucleotide, SEQ ID NO: 267, 8-base mismatch to ISIS 227446 (AGAGAGCTACCTAACTAACA; chemistry not given here) [reference compound]", "values": [{"measurement": "Specific binding/mg protein (cpm) ¼ dilution", "setting": "growth hormone receptor; [7]", "result": "8431 ± 2663", "unit": "cpm"}, {"measurement": "Specific binding/mg protein (cpm) ½ dilution", "setting": "growth hormone receptor; [7]", "result": "7090 ± 1877", "unit": "cpm"}, {"measurement": "growth hormone receptor levels (growth hormone binding activity), % of control (saline) group", "setting": "growth hormone receptor; 30 mg/kg sc every second day for one week", "result": "no effect"}, {"measurement": "% IGF-I reduction", "setting": "[1]", "result": 21, "unit": "%"}, {"measurement": "% IGF-I reduction", "setting": "[1]; listed as Mismatch", "result": 20.98, "unit": "%"}, {"measurement": "IGF-I (ng/ml) Day 7", "setting": "[1]; 30 mg/kg sc once every 2 days (days 0, 2, 4, 6)", "result": "81.1 ± 19.16", "unit": "ng/mL"}, {"measurement": "IGF-I (ng/ml) Day −2", "setting": "[1]; pre-treatment value of the group given 30 mg/kg sc once every 2 days", "result": "184.87 ± 55.6", "unit": "ng/mL"}, {"measurement": "Day 14 serum IGF-I", "setting": "serum IGF-I [2]; 3 mg/kg every other day for 14 days", "result": 184, "unit": "ng/mL"}, {"measurement": "% decrease relative to 3 mg/kg ISIS 261303", "setting": "serum IGF-I [2]; 3 mg/kg", "result": 0, "unit": "%"}, {"measurement": "Day 14 serum IGF-I", "setting": "serum IGF-I [2]; 5 mg/kg every other day for 14 days", "result": 186, "unit": "ng/mL"}, {"measurement": "% decrease relative to 3 mg/kg ISIS 261303", "setting": "serum IGF-I [2]; 5 mg/kg", "result": 0, "unit": "%"}, {"measurement": "Day 14 serum IGF-I", "setting": "serum IGF-I [2]; 10 mg/kg every other day for 14 days", "result": 174, "unit": "ng/mL"}, {"measurement": "% decrease relative to 3 mg/kg ISIS 261303", "setting": "serum IGF-I [2]; 10 mg/kg", "result": 5, "unit": "%"}, {"measurement": "Day 14 serum IGF-I", "setting": "serum IGF-I [2]; 20 mg/kg every other day for 14 days", "result": 164, "unit": "ng/mL"}, {"measurement": "% decrease relative to 3 mg/kg ISIS 261303", "setting": "serum IGF-I [2]; 20 mg/kg", "result": 11, "unit": "%"}, {"measurement": "Day 14 serum IGF-I", "setting": "serum IGF-I [2]; 30 mg/kg every other day for 14 days", "result": 130, "unit": "ng/mL"}, {"measurement": "% decrease relative to 3 mg/kg ISIS 261303", "setting": "serum IGF-I [2]; 30 mg/kg", "result": 29, "unit": "%"}, {"measurement": "decrease in growth hormone receptor mRNA in liver", "setting": "[3]", "result": "approximately 3%"}]}, {"substance": "octreotide", "values": [{"measurement": "IGF-I (ng/ml) Day 7", "setting": "[4]; 25 μg twice per day", "result": "114.34 ± 41.36", "unit": "ng/mL"}, {"measurement": "IGF-I (ng/ml) Day −2", "setting": "[4]; pre-treatment value of the group given 25 μg/kg twice per day", "result": "199.72 ± 44.47", "unit": "ng/mL"}, {"measurement": "effect on serum IGF-I levels at day 7", "setting": "[1]; 2 doses per day at 25 μg each", "result": "no effect"}, {"measurement": "reduction of serum IGF-I", "setting": "serum IGF-I [5]; 11 patients", "result": 45, "unit": "%"}, {"measurement": "reduction of glomerular filtration rate relative to placebo", "setting": "serum IGF-I [5]", "result": "22-33%"}, {"measurement": "patients in whom treatment is effective", "setting": "[6]", "result": "60-65%"}, {"measurement": "reduction of sIGF-1", "setting": "sIGF-1; 5000 μg/day sc, maximally tolerated doses, 15 month study", "result": 51, "unit": "%"}, {"measurement": "ocular disease", "setting": "sIGF-1; vs placebo of 42%", "result": 27, "unit": "%"}]}]}
